Assay results published in patent US11464763B2, “Parasiticidal compositions comprising an isoxazoline active agent, methods and uses thereof” (BOEHRINGER INGELHEIM ANIMAL HEALTH USA INC., priority 2011, dated 2022).
Values after ≈ are worked out from the molar mass of the structure shown.

Columns and labels:
[1] = 14C radiolabeled drug, beagle dogs, spot-on administration; cited from earlier work
[2] = 20° C. and pH of 7; cited from earlier work
Ctenocephalides felis = test: Spot-on efficacy of Compound A, pyriproxyfen and nitenpyram against Ctenocephalides felis fleas in cats (Example 11); assay type: in vivo; conditions: Group 5: 2.08% nitenpyram alone in Transcutol, 5.0 mg/kg
Description: The efficacy of three spot-on compositions comprising a combination of Compound A, pyriproxyfen and nitenpyram against Ctenocephalides felis fleas in cats was studied and compared with an untreated control and with a spot-on composition comprising nitenpyram alone. Cats were allocated into five Treatment Groups with 5 cats per group: Group 1—cats were untreated (control); Group 2—cats were treated spot-on solution containing 0.83% (w/v) Compound A, 2.08% (w/v) nitenpyram, and 4.17% (w/v) pyriproxyfen in Transcutol® to deliver doses of 1.0 mg/kg Compound A, 2.5 mg/kg nitenpyram and 5.0 mg/kg pyriproxyfen; Group 3—cats were treated a spot-on solution containing 0.83% (w/v) Compound A, 4.17% (w/v) nitenpyram, and 4.17% (w/v) pyriproxyfen in Transcutol® to deliver doses of 1.0 mg/kg Compound A, 5.0 mg/kg nitenpyram and 5.0 mg/kg pyriproxyfen; Group 4—cats were treated with a spot-on composition containing 0.83% (w/v) Compound A, 8.33% (w/v) nitenpyram and 4.17% (w/v) pyriproxyfen in Transcutol® to deliver doses of 1.0 mg/kg Compound A, 10.0 mg/kg nitenpyram and 5.0 mg/kg pyriproxyfen; Group 5—cats were treated with a spot-on composition containing 2.08% (w/v) nitenpyram alone in Transcutol® to deliver a dose of 5.0 mg/kg body weight.
Treatment was administered once on Day 0. The cats were each infested with approximately 100 C. felis fleas at day −1, on Day 0 approximately 12 hours post treatment and then on Days 1 (approx. 24 hours post treatment), 2, 7, 14, 21, 28 and 35. After each infestation, fleas were removed and counted approximately 12 hours (±3) on Day 0, and then on Days 1, 2, 8, 15, 22, 29 and 36 (24±3 hours after infestation).

Compound | persistently detected in the whole skin after treatment [1] | solubility in water [2] [mg/mL] | % Reduction (Ctenocephalides felis; Day 0 (12 h)) [%] | % Reduction (Ctenocephalides felis; Day 1 (24 h)) [%] | % Reduction (Ctenocephalides felis; Day 2 (24 h)) [%] | % Reduction (Ctenocephalides felis; Day 8 (24 h)) [%] | % Reduction (Ctenocephalides felis; Day 15 (24 h)) [%] | % Reduction (Ctenocephalides felis; Day 22 (24 h)) [%]
N#Cc1nn(-c2c(Cl)cc(C(F)(F)F)cc2Cl)c(N)c1[S+]([O-])C(F)(F)F (centres unmarked) [fipronil] | up to 56 days |  |  |  |  |  |  | 
CCN(Cc1ccc(Cl)nc1)/C(=C/[N+](=O)[O-])NC [nitenpyram] |  | 840 (≈ 3100 mM) | 99.44 | 99.79 | 100.00 | 100.00 | 96.76 | 93.63
